Structures are written as SMILES.

In the first assay the test system is A549. Put plainly: 72-h MTT cytotoxicity assay, A549. It counts as cell-based, human. To be noted: Homo sapiens, Table 4, additional data for cytotoxicity assay using the A549 cell line; read-out: A549. Here is the method: Selected compounds from the above examples were subjected to a standard cellular proliferation assay using a range of different human tumour cell lines. Standard 72-h MTT (thiazolyl blue; 3-{4,5-dimethylthiazol-2-yl}-2,5-diphenyltetrazolium bromide) assays were performed (Haselsberger, K.; Peterson, D. C.; Thomas, D. G.; Darling, J. L. Anti Cancer Drugs 1996, 7, 331-8; Loveland, B. E.; Johns, T. G.; Mackay, I. R.; Vaillant, F.; Wang, Z. X.; Hertzog, P. J. Biochemistry International 1992, 27, 501-10). Human tumour cell lines were obtained from the ATCC (American Type Culture Collection, 10801 University Boulevard, Manessas, Va. 20110-2209, USA).
For orientation: Formazan colour is commonly taken as a measure of viable cells.
Take `Clc1cc(-c2ccnc(Nc3ccccc3Cl)n2)c(Cl)s1` [Compound 2, (2-Chloro-phenyl)-{4-(2,5-dichloro-thiophen-3-yl)-pyrimidin-2-yl}-amine]: the IC50 is 41 ± 8 µM. For the compound `Cc1nc(C)c(-c2ccnc(Nc3ccc(O)cc3)n2)s1` [Compound 41, 4-{4-(2,4-Dimethyl-thiazol-5-yl)-pyrimidin-2-ylamino}-phenol], the IC50 is 0.02 µM. Same read-out and setting: the figure for `CNc1nc(C)c(-c2ccnc(Nc3ccc(F)c(F)c3)n2)s1` [Compound 104, (3,4-Difluoro-phenyl)-{4-(4-methyl-2-methylamino-thiazol-5-yl)-pyrimidin-2-yl}-amine] is 4.9 ± 2.5 µM; for `Cc1nc(C)c(-c2ccnc(Nc3cccc(N)c3)n2)s1` [Compound 47, N-{4-(2,4-Dimethyl-thiazol-5-yl)-pyrimidin-2-yl}-benzene-1,3-diamine] it is 1.8 ± 1.4 µM; for `Cc1nc(C)c(-c2ccnc(Nc3cccc(C(F)(F)F)c3)n2)s1` [Compound 26, {4-(2,4-Dimethyl-thiazol-5-yl)-pyrimidin-2-yl}-(3-trifluoromethyl-phenyl)-amine] it is 3.3 µM.

For `Cc1nc(C)c(-c2ccnc(Nc3ccc(Cl)cc3Cl)n2)s1` [Compound 25, (2,4-Dichloro-phenyl)-{4-(2,4-dimethyl-thiazol-5-yl)-pyrimidin-2-yl}-amine], the IC50 was 1.5 µM. Consider `Cc1nc(C)c(-c2ccnc(NS(=O)(=O)c3cccc([N+](=O)[O-])c3)n2)s1` [Compound 42, N-{4-(2,4-Dimethyl-thiazol-5-yl)-pyrimidin-2-yl}-3-nitro-benzenesulfonamide], for which the IC50 worked out at 56 µM. Same read-out and setting: the figure for `CNc1nc(C)c(-c2ccnc(Nc3cccc(O)c3)n2)s1` [Compound 85, 3-{4-(4-Methyl-2-methylamino-thiazol-5-yl)-pyrimidin-2-ylamino}-phenol] is 0.4 µM; for `COc1cc(-c2cc(-c3sc(C)nc3C)nc(Nc3ccc(F)cc3)n2)cc(OC)c1O` [Compound 69, 4-{6-(2,4-Dimethyl-thiazol-5-yl)-2-(4-fluoro-phenylamino)-pyrimidin-4-yl}-2,6-dimethoxy-phenol] it is 12 ± 5 µM; for `COC(=O)c1cc(Nc2nccc(-c3sc(C)nc3C)n2)ccc1Cl` [Compound 99, 2-Chloro-5-{4-(2,4-dimethyl-thiazol-5-yl)-pyrimidin-2-ylamino}-benzoic acid methyl ester] it is 3.7 ± 2.7 µM. Still for that read-out and setting: to `Cc1nc(C)c(-c2ccnc(Nc3cccc(F)c3)n2)s1` [Compound 35, {4-(2,4-Dimethyl-thiazol-5-yl)-pyrimidin-2-yl}-(3-fluoro-phenyl)-amine] belongs 4.2 µM; to `Cc1nc(C)c(-c2ccnc(Nc3ccccc3I)n2)s1` [Compound 32, {4-(2,4-Dimethyl-thiazol-5-yl)-pyrimidin-2-yl}-(2-iodo-phenyl)-amine], 23 µM. Same read-out and setting: the figure for `Cc1cc(-c2ccnc(Nc3ccccc3Cl)n2)c(C)s1` [Compound 15, (2-Chloro-phenyl)-{4-(2,5-dimethyl-thiophen-3-yl)-pyrimidin-2-yl}-amine] is 6 µM. Regarding `Cc1nc(C)c(-c2cc(-c3ccc(O)cc3)nc(Nc3ccc(F)cc3)n2)s1` [Compound 70, 4-{6-(2,4-Dimethyl-thiazol-5-yl)-2-(4-fluoro-phenylamino)-pyrimidin-4-yl}-phenol], the IC50 came out at 3 ± 1 µM. Regarding `Cc1nc(C)c(-c2cc(-c3ccc(C(F)(F)F)cc3)nc(Nc3ccc(Cl)cc3)n2)s1` [Compound 65, (4-Chloro-phenyl)-{4-(2,4-dimethyl-thiazol-5-yl)-6-(4-trifluoromethyl-phenyl)-pyrimidin-2-yl}-amine], the IC50 turned out to be 55 ± 50 µM.

Still in this assay, the particulars now being: Table 4, additional data for cytotoxicity assay using the A549 cell line; read-out: A549.
On to `Cc1nc(C)c(-c2cc(-c3ccccc3)nc(Nc3cccc([N+](=O)[O-])c3)n2)s1` [Compound 57, {4-(2,4-Dimethyl-thiazol-7-yl)-6-phenyl-pyrimidin-2-yl}-(3-nitro-phenyl)-amine], for which the IC50 is 5.2 ± 0.4 µM.

These data come from patent US6699854B2, “Anti-cancer compounds” (Cyclacel Limited, priority 2000, dated 2004).
